Source: patent USRE30633E, “3-Lower alkylcarbamylsulfonamido-4-phenylaminopyridines, n-oxides, derivatives thereof and pharmaceutical compositions containing same” (A. Christiaens Societe Anonyme, priority 1974, dated 1981)

Columns and labels:
[1] = tested on: paw of rats; assay: Pharmacological test for anti-inflammatory properties (carrageenan rat paw swelling); type: in vivo; conditions: oral 1 hour before carrageenan (0.05 ml of 1%), swelling 4 hours after injection by plethysmography, dose not given
Protocol: 1. Pharmacological test for anti-inflammatory properties.
The compounds to be tested are given as freshly prepared solutions or suspensions by oral route 1 hour before injecting the paw of rats with carrageenan which is a known inflammatory agent.
The inflammatory agent (carrageenan) either in solution or suspension is then injected into the plantar tissue of the right hind paw of each rat, the left paw remaining untreated and serving as control. Each animal receives, for example, 0.05 ml of an aqueous solution containing 1% by weight of carrageenan and 0.9% of sodium chloride.
4 hours after the injection of the inflammatory agent, the importance of swelling is determined by plethysmography and is expressed as a percent of the volume of the control paw.
The anti-inflammatory effect expressed as a percentage of inhibition is obtained by comparison between rats treated with the anti-inflammatory compound and a control group of rats.

[2] = tested on: rats; assay: Pharmacological test for diuretic properties (urine volume); type: in vivo; conditions: 50 mg/kg gastric gavage, 25 ml/kg saline s.c., urine collected 4 hours, ml/kg of body weight
Protocol: 2. Pharmacological tests for diuretic properties Lots of 3 rats weighting 250-300 g have been constituted at random, each of them being submitted to the same treatment. The compound to be tested was administered by .[.gastric gavage at a dose of 50 ml/kg as a solution or a.]. .Iadd.gastric gavage at a dose of 50 mg/kg as a solution or a .[…].suspension in water containing 0.45% of methylcellulose (which is an inert mucilaginous substance). Control animals received only distilled water as a placebo. At the same time, all the animals received 25 ml/kg of physiological saline by subcutaneous injection. The rats were then placed in metabolic cages, each cage containing 3 animals receiving the same treatment. The urines have been collected during 4 hours. […] The diuresis is expressed in ml/kg of body weight.

Structure (SMILES) | % inhibition of acute oedema [1] [%] | Diuresis [2] [mL/kg]
CC(C)(C)NC(=O)NS(=O)(=O)c1cnccc1Nc1cccc(Cl)c1 [JDL 388, 3-tertiobutylcarbamylsulfonamido-4-(3'-chloro)-phenylaminopyridine] | 66.4 | 37.0
CCCNC(=O)NS(=O)(=O)c1cnccc1N(C)c1ccccc1 [JDL 383, 3-pripylcarbamylsulfonamido-4-N-methyl-anilinopyridine] | 55.2 | 57.8
CNC(=O)NS(=O)(=O)c1cnccc1Nc1ccc(Cl)cc1 [JDL 415, 3-methylcarbamylsulfonamido-4-(4'-chloro)-phenylaminopyridine] | 75.2 | 47.0
CC(=O)NS(=O)(=O)c1cnccc1Sc1cccc(Cl)c1 [JDL 362, 3-acetylsulfonamido-4-(3-chloro)-thiophenoxy-pyridine] | 37.6 | 8.1
CNC(=O)NS(=O)(=O)c1cnccc1Nc1cccc(C(F)(F)F)c1 [JDL 378, 3-methylcarbamylsulfonamido-4-(3'-trifluoromethyl)-phenylaminopyridine] | 74.4 | 84.0
NS(=O)(=O)c1cnccc1Oc1cccc(Cl)c1 [JDL 360, 3-sulfonamido-4-(3'-chloro)-phenoxypyridine] | 33.6 | 5.2
CCCCNC(=O)NS(=O)(=O)c1cnccc1Nc1ccccc1Cl [JDL 422, 3-butylcarbamylsulfonamido-4(2'-chloro)-phenylaminopyridine] | 46.4 | 56.7
CCCCNC(=O)NS(=O)(=O)c1cnccc1Sc1cccc(Cl)c1 [JDL 366, 3-butylcarbamylsulfonamido-4-(3'-chloro)-thiophenoxypyridine] | 56.0 | 11.1
O=C(NC1CCCCC1)NS(=O)(=O)c1cnccc1Nc1cccc(C(F)(F)F)c1 [JDL 364, 3-cyclohexylcarbamylsulfonamido-4-(3'-trifluoromethyl)-phenylaminopyridine] | 58.4 | 37.7
C=CCNC(=S)NS(=O)(=O)c1cnccc1Nc1cccc(Cl)c1 [JDL 480, 3-allyl-thiocarbamyl-sulfonamido-4-(3'-chloro)-phenylaminopyridine] | 65.6 | 26.4
CCNC(=O)NS(=O)(=O)c1cnccc1Nc1cc(Cl)cc(Cl)c1 [JDL 473, 3-ethylcarbamylsulfonamido-4-(3',5'-dichloro)-phenylaminopyridine] | 41.6 | 24.0
CNC(=O)NS(=O)(=O)c1cncc(C)c1Nc1cccc(Cl)c1 [JDL 501, 3-methylcarbamylsulfonamido-4-(3'-chloro)-phenylamino-5-methylpyridine] | 39.2 | 35.9
O=C(Nc1ccc(Cl)cc1)NS(=O)(=O)c1cnccc1Nc1cccc(Cl)c1 [JDL 391, 3-parachlorophenylcarbamylsulfonamido-4-(3'-chloro)-phenylaminopyridine] | 74.4 | 9.6
CNC(=O)NS(=O)(=O)c1cnccc1Nc1cccc([N+](=O)[O-])c1 [JDL 504, 3-methylcarbamylsulfonamido-4-(3'-nitro)-phenylaminopyridine] | 43.0 | 17.2
CC(C)NC(=O)NS(=O)(=O)c1cnccc1Nc1cccc(Br)c1 [JDL 468, 3-isopropylcarbamylsulfonamido-4-(3'-bromo)-phenylaminopyridine] | 72.0 | 77.2
CNC(=O)NS(=O)(=O)c1cnccc1Nc1ccccc1Cl [JDL 402, 3-methylcarbamylsulfonamidio-4-(2'-chloro)-phenylaminopyridine] | 76.8 | 65.4
CC(C)NC(=O)NS(=O)(=O)c1cnccc1Nc1ccc(Cl)c(Cl)c1 [JDL 476, 3-isopropylcarbamylsulfonamido-4-(3',4'-dichloro)-phenylaminopyridine] | 92.0 | 42.1
CC(C)NC(=O)NS(=O)(=O)c1cnccc1Nc1cccc(C(F)(F)F)c1 [JDL 414, 3-isopropylcarbamylsulfonamido-4-(3'-trifluoromethyl)-phenylaminopyridine] | 75.2 | 82.9
CCNC(=O)NS(=O)(=O)c1cnccc1Nc1cccc(C(F)(F)F)c1 [JDL 386, 3-ethylcarbamylsulfonamido-4-(3'-trifluoromethyl)-phenylaminopyridline] | 80.8 | 80.5

Structure (SMILES) | % inhibition of acute oedema [1] [%] | Diuresis [2] [mL/kg]
CC(C)NC(=O)NS(=O)(=O)c1cnccc1NC(C)C [JDL 482, 3-isopropylcarbamylsulfonamido-4-isopropylaminopyridine] | 0 | 25.3
CCNC(=O)NS(=O)(=O)c1cnccc1Nc1cccc(Br)c1 [JDL 467, 3-ethylcarbamylsulfonamido-4-(3'-bromo)-phenylaminopyridine] | 69.6 | 65.8
CCCNC(=O)NS(=O)(=O)c1cnccc1Nc1ccc(Cl)cc1 [JDL 417, 3-propylcarbamylsulfonamido-4-(4'-chloro)-phenylaminopyridine] | 72.8 | 58.3
CNC(=O)NS(=O)(=O)c1cnccc1Nc1cccc(Cl)c1 [JDL 379, 3-methylcarbamylsulfonamido-4-(3'-chloro)-phenylaminopyridine] | 63.2 | 76.5
CCCNC(=O)NS(=O)(=O)c1cnccc1Nc1cccc(C(F)(F)F)c1 [JDL 355, 3-propylcarbamylsulfonamido-4-(3'-trifluoromethyl)phenylaminopyridine] | 48.8 | 57.0
CC(C)NC(=O)NS(=O)(=O)c1cnccc1Nc1cccc(Cl)c1 [JDL 413, 3-isopropylcarbamylsulfonamido-4-(3'-chloro)-phenylaminopyridine] | 76.8 | 92.5
CCCNC(=O)NS(=O)(=O)c1cnccc1Sc1cccc(Cl)c1 [JDL 384, 3-propylcarbamylsulfonamido-4-(3'-chloro)-thiophenoxypyridine] | 66.4 | 12.8
CCCNC(=O)NS(=O)(=O)c1cnccc1Nc1cccc(Cl)c1 [JDL 375, 3-propylcarbamylsulfonamido-4-(3'-chloro)-phenylaminopyridine] | 46.4 | 80.5
CCNC(=O)NS(=O)(=O)c1cnccc1Nc1cccc(OC)c1 [JDL 469, 3-ethylcarbamylsulfonamido-4-(3'-methoxy)-phenylaminopyridine] | 60.8 | 46.9
CC(C)(C)NC(=O)NS(=O)(=O)c1cnccc1Nc1ccc(Cl)cc1 [JDL 425, 3-tertiobutylcarbamylsulfonamido-4-(4'-chloro)-phenylaminopyridine] | 42.4 | 37.7
CCCNC(=O)NS(=O)(=O)c1cnccc1Oc1cccc(Cl)c1 [JDL 365, 3-propylcarbamylsulfonamido-4-(3'-chloro)-phenoxypyridine] | 43.2 | 8.7
O=C(Nc1ccccc1)NS(=O)(=O)c1cnccc1Nc1cccc(Cl)c1 [JDL 390, 3-phenylcarbamylsulfonamido-4-(3'-chloro)-phenylaminopyridine] | 47.2 | 16.9
CNC(=O)NS(=O)(=O)c1cnccc1Nc1cccc(Br)c1 [JDL 496, 3-methylcarbamylsulfonamido-4-(3'-bromo)-phenylaminopyridine] | 70.4 | 72.1
CCCCNC(=O)NS(=O)(=O)c1cnccc1Nc1ccc(Cl)cc1 [JDL 424, 3-butylcarbamylsulfonamido-4-(4'-chloro)-phenylaminopyridine] | 50.4 | 21.0
CC(C)NC(=O)NS(=O)(=O)c1cnccc1Nc1ccccc1Cl [JDL 421, 3-isopropylcarbamylsulfonamido-4-(2'-chloro)-phenylaminopyridine] | 88.8 | 72.0
CCNC(=O)NS(=O)(=O)c1cnccc1NCc1ccco1 [JDL 471, 3-ethylcarbamylsulfonamido-4-methylfurylaminopyridine] | 70.4 | 37.7
CCN(CC)c1ccncc1S(N)(=O)=O [JDL 484, 3-sulfonamido-4-diethylaminopyridine] | 13.6 | 9.0
CCC(=O)NS(=O)(=O)c1cnccc1N(C)c1ccccc1 [JDL 358, 3-propionylsulfonamido-4-(N-methylanilino)-pyridine] | 57.3 | 17.9
